Reference: patent US20110081675A1, “Metabolic Biomarkers Of Drug-Induced Cardiotoxicity” (WISCONSIN ALUMNI RESEARCH FOUNDATION, priority 2009, published 2011)

Tests used:
[1] = system: human cardiomyocytes (Celprogen 36044-15at); assay: LC-ESI-TOF-MS metabolomics of extracellular media of drug-treated human cardiomyocytes (Tables 2A-2C); type: cell-based; conditions: for doxfold: 26uM Doxorubicin; for pacfold: 15uM paclitaxel
Description: Data for statistical analysis were extracted from chromatograms using the Agilent Mass Hunter software (Product No. G3297AA, Agilent Technologies, Inc., Santa Clara, Calif.); it will be understood that alternative statistical analysis methods can be used. Masses were binned together if they were within 10 ppm and eluted within a 2 minutes retention time window. A binned mass was considered to be the same molecule across different LC-ESI-TOF-MS analyses (referred to herein as an “exact mass,” which will be understood to be ±10 ppm). Binning of the data is required for statistical analysis and comparison of masses across the entire experiment. If multiple peaks with the same mass at the same retention time within a single sample were detected by Mass Hunter, they were averaged to assist data analysis. Masses lacking a natural isotopic distribution or with an absolute height of less than 1000 were removed from the data prior to analysis. It would be understood that the results from this assay provide relative values that are assessed according to annotated values within 10 ppm to provide an identity for the molecular weight detected. Thus, a mass shift within 10 ppm is considered consistent with determining the identity of a specific cellular metabolite previously annotated due to differences in ionization source and instrumentation, e.g. between different experiments or using different instruments.
As used herein, a mass was considered to be the same across LC/ESI-TOF-MS runs using a simple algorithm that first sorts the data by mass and retention time. […] If a series of measurements fit this definition it was considered to be from the same compound. If either the mass or the retention time varied by more than the limits listed above it was considered to be a different compound and given a new unique designation.
The data from the most reproducible mass features was log base 2 transformed and median centered prior to statistical analysis. […] To test the null hypothesis a one way permutation based t-test assuming a normal approximation of the conditional distribution was used and implement using the Conditional Inference Procedures in a Permutation Test Framework (Coin) library, a contributed package of programming code. Statistics tests were performed without replacement of missing values decrease the degrees of freedom rather than imputing missing values. […] False discovery rates (FDR) were controlled using the Q value estimator (Storey et al., 2003, Proc Natl Acad. Sci., 100:9440-5) and implemented using the qvalue library in R (Dabney et al., 2003, qvalue: Q-value estimation for false discovery rate control. R package version 1.10.0., www.CRAN.R-project.org).
The extracellular media from treated and untreated cells was processed as described in Cezar et al., (2007, Stem Cells Development 16: 869-882, this publication is incorporated by reference), for extraction of low molecular weight molecules (<3 kD) for metabolomics analysis. Extracellular low molecular weight molecule preparations were separated by liquid chromatography followed by electrospray ionization time of flight (LC-ESI-TOF-MS) mass spectrometry for ionization and detection of the full spectra of low molecular weight molecules present in each sample. More specifically, the samples were separated using the ESI_Luna_HILIC—95_t—06OACN—16 min method (HILIC chromatography). Statistical differences were inferred by subsequent bioinformatics and in silico mapping of deisotoped ESI-TOF-MS mass features as described below (also provided in Cezar et al. (2007, id.)).
Briefly, ionization (100 m/z-1500 m/z) was acquired on an Agilent 6520 Accurate-Mass Q-TOF in extended dynamic range and positive mode. Mass features were generated using two independent methods. First MassHunter Qualitative Analysis was used to generate mass features using the Molecular Feature Extraction algorithm (MFE).

human cardiomyocytes = system: human cardiomyocytes
Description: The percentage of cell death, inherently and after drug treatment, was calculated by Trypan Blue staining (FIG. 2).
The doses for each compound were based upon published standards, equivalent to therapeutic circulating levels whenever possible (see Table 1).

[2] = feature cpdID 36, neutral mass 101.1204, RT 0.720145, Triethylamine or Hexylamine
[3] = feature cpdID 8902, neutral mass 276.1256, RT 8.733378, no hit
[4] = feature cpdID 11232, neutral mass 311.1029, RT 7.400847, p-Glucosyloxymandelonitrile or (S)-4-Hydroxymandelonitrile beta-D-glucoside
[5] = feature cpdID 14190, neutral mass 356.253, RT 1.103957, HMDB04239, 13,14-dihydro PGE1 or Prostaglandin F1alpha
[6] = feature cpdID 16504, neutral mass 393.0913, RT 7.25538, no hit
[7] = feature cpdID 16939, neutral mass 400.2796, RT 1.108613, 7-Ketocholesterol
[8] = feature cpdID 17096, neutral mass 403.1776, RT 6.2306, no hit
[9] = feature cpdID 19500, neutral mass 444.3034, RT 1.106333, […]-Dihydroxyvitamin D3-26,23-lactone
[10] = feature cpdID 19704, neutral mass 448.1344, RT 7.184483, no hit
[11] = feature cpdID 21926, neutral mass 488.3323, RT 1.106573, no hit
[12] = feature cpdID 23129, neutral mass 515.181, RT 10.44297, no hit
[13] = feature cpdID 23163, neutral mass 516.1241, RT 7.217222, Formononetin 7-O-glucoside-6″-O-malonate, Isochlorogenic acid b or 13-Dicaffeoylquinic acid
[14] = feature cpdID 24142, neutral mass 538.2779, RT 0.783395, no hit
[15] = feature cpdID 25445, neutral mass 572.1055, RT 7.089848, no hit
[16] = feature cpdID 25601, neutral mass 576.3861, RT 1.10751, 3-Hexaprenyl-4-hydroxy-5-methoxybenzoic acid
[17] = feature cpdID 27363, neutral mass 620.4117, RT 1.108317, no hit
[18] = feature cpdID 28720, neutral mass 661.1924, RT 6.495524, no hit
[19] = feature cpdID 29101, neutral mass 672.1828, RT 6.528464, no hit
[20] = feature cpdID 29124, neutral mass 672.6836, RT 6.559082, no hit
[21] = feature cpdID 29227, neutral mass 676.1781, RT 1.298314, no hit
[22] = feature cpdID 31637, neutral mass 744.1091, RT 1.26415, no hit
[23] = feature cpdID 37922, neutral mass 932.7613, RT 6.562271, no hit
[24] = feature cpdID 40510, neutral mass 1040.322, RT 6.499979, no hit
[25] = feature cpdID 42137, neutral mass 1122.172, RT 1.256606, no hit
[26] = feature cpdID 45209, neutral mass 1300.402, RT 6.501484, no hit
[27] = feature cpdID 45486, neutral mass 1322.385, RT 6.518707, no hit

## COc1cccc2c1C(=O)c1c(O)c3c(c(O)c1C2=O)C[C@@](O)(C(=O)CO)C[C@@H]3O[C@H]1C[C@H](N)[C@H](O)[C@H](C)O1 [Doxorubicin]
[1]; [2]
  doxfold: −1.186 fold
[1]; [3]
  doxfold: 2.438 fold
[1]; [4]
  doxfold: 5.193 fold
[1]; [5]
  doxfold: 12.32 fold
[1]; [6]
  doxfold: 1.09 fold
[1]; [7]
  doxfold: 11.7 fold
[1]; [8]
  doxfold: −2.02 fold
[1]; [9]
  doxfold: 16.24 fold
[1]; [10]
  doxfold: 2.122 fold
[1]; [11]
  doxfold: 7.799 fold
[1]; [12]
  doxfold: 1.178 fold
[1]; [13]
  doxfold: 2.198 fold
[1]; [14]
  doxfold: 1.559 fold
[1]; [15]
  doxfold: 1.199 fold
[1]; feature cpdID 25561, neutral mass 575.2051, RT 7.271724, no hit
  doxfold: 2.11 fold
[1]; [16]
  doxfold: 4.776 fold
[1]; [17]
  doxfold: 2.836 fold
[1]; [18]
  doxfold: 1.096 fold
[1]; [19]
  doxfold: 2.172 fold
[1]; [20]
  doxfold: 1.282 fold
[1]; [21]
  doxfold: −6.816 fold
[1]; [22]
  doxfold: −1.423 fold
[1]; feature cpdID 33162, neutral mass 791.2316, RT 6.496594, no hit
  doxfold: 1.817 fold
[1]; feature cpdID 37905, neutral mass 932.2608, RT 6.542554, no hit
  doxfold: 1.663 fold
[1]; [23]
  doxfold: 1.324 fold
[1]; feature cpdID 37938, neutral mass 933.3726, RT 8.330596, no hit
  doxfold: 1.117 fold
[1]; [24]
  doxfold: 1.351 fold
[1]; [25]
  doxfold: −3.594 fold
[1]; [26]
  doxfold: 1.838 fold
[1]; [27]
  doxfold: 1.667 fold
Human cardiomyocytes
  cell death (in words): significantly higher cell death

## CC(=O)O[C@H]1C(=O)[C@@]2(C)[C@H]([C@H](OC(=O)c3ccccc3)[C@]3(O)C[C@H](OC(=O)[C@H](O)[C@@H](NC(=O)c4ccccc4)c4ccccc4)C(C)=C1C3(C)C)[C@]1(OC(C)=O)CO[C@@H]1C[C@@H]2O [Paclitaxel]
[1]; [2]
  pacfold: 1.413 fold
[1]; [3]
  pacfold: 2.728 fold
[1]; [4]
  pacfold: 4.25 fold
[1]; [5]
  pacfold: 12.08 fold
[1]; feature cpdID 15112, neutral mass 372.0557, RT […], no hit
  pacfold: −1.026 fold
[1]; [6]
  pacfold: 1.219 fold
[1]; [7]
  pacfold: 11.76 fold
[1]; [8]
  pacfold: −2.028 fold
[1]; [9]
  pacfold: 17.08 fold
[1]; [10]
  pacfold: 2.694 fold
[1]; [11]
  pacfold: 8.467 fold
[1]; [12]
  pacfold: 1.263 fold
[1]; [13]
  pacfold: 2.288 fold
[1]; [14]
  pacfold: 1.807 fold
[1]; [15]
  pacfold: 1.259 fold
[1]; [16]
  pacfold: 5.623 fold
[1]; [17]
  pacfold: 3.53 fold
[1]; [18]
  pacfold: 1.205 fold
[1]; [19]
  pacfold: 2.408 fold
[1]; [20]
  pacfold: 1.432 fold
[1]; [21]
  pacfold: −1.322 fold
[1]; [22]
  pacfold: −1.129 fold
[1]; [23]
  pacfold: 1.506 fold
[1]; [24]
  pacfold: 1.465 fold
[1]; [25]
  pacfold: −2.322 fold
[1]; [26]
  pacfold: 1.771 fold
[1]; [27]
  pacfold: 1.836 fold
Human cardiomyocytes
  cell death (in words): significantly higher cell death
